Results reported in the NIST ThermoML archive (doi:10.1016/j.fluid.2014.09.014).
Numbers after ± are expanded uncertainties.

Assay: refractive index (other wavelength) (dimensionless); xn = mol fraction of the nth substance listed
Settings: 101 kPa, Liquid, Standard Abbe refractometry

CC(C)OC(C)C [diisopropyl ether] + CO
Settings | refractive index
298.15 K, Wavelength=644 nm, x2 = 0.9233 | 1.33353 ± 0.00033
298.15 K, Wavelength=644 nm, x2 = 0.9253 | 1.33535 ± 0.00033
298.15 K, Wavelength=644 nm, x2 = 0.9527 | 1.33222 ± 0.00032
298.15 K, Wavelength=644 nm, x2 = 0.9773 | 1.32879 ± 0.00032
298.15 K, Wavelength=644 nm, x2 = 0.989 | 1.32761 ± 0.00032
298.15 K, Wavelength=644 nm, x2 = 0.9964 | 1.32621 ± 0.00032
298.15 K, Wavelength=706.5 nm, x2 = 0 | 1.36237 ± 0.00043
298.15 K, Wavelength=706.5 nm, x2 = 0.0423 | 1.36228 ± 0.00042
298.15 K, Wavelength=706.5 nm, x2 = 0.0424 | 1.36226 ± 0.00043
298.15 K, Wavelength=706.5 nm, x2 = 0.082 | 1.36224 ± 0.00042
298.15 K, Wavelength=706.5 nm, x2 = 0.0822 | 1.36226 ± 0.00042
298.15 K, Wavelength=706.5 nm, x2 = 0.1171 | 1.3621 ± 0.00041
298.15 K, Wavelength=706.5 nm, x2 = 0.1271 | 1.36211 ± 0.00041
298.15 K, Wavelength=706.5 nm, x2 = 0.1827 | 1.36175 ± 0.0004
298.15 K, Wavelength=706.5 nm, x2 = 0.2162 | 1.36228 ± 0.0004
298.15 K, Wavelength=706.5 nm, x2 = 0.251 | 1.36166 ± 0.00039
298.15 K, Wavelength=706.5 nm, x2 = 0.3298 | 1.36089 ± 0.00038
298.15 K, Wavelength=706.5 nm, x2 = 0.3577 | 1.35951 ± 0.00037
298.15 K, Wavelength=706.5 nm, x2 = 0.4497 | 1.35863 ± 0.00037
298.15 K, Wavelength=706.5 nm, x2 = 0.4525 | 1.35916 ± 0.00037
298.15 K, Wavelength=706.5 nm, x2 = 0.522 | 1.35694 ± 0.00035
298.15 K, Wavelength=706.5 nm, x2 = 0.5543 | 1.35655 ± 0.00035
298.15 K, Wavelength=706.5 nm, x2 = 0.609 | 1.35369 ± 0.00034
298.15 K, Wavelength=706.5 nm, x2 = 0.6529 | 1.35223 ± 0.00034
298.15 K, Wavelength=706.5 nm, x2 = 0.7504 | 1.34842 ± 0.00035
298.15 K, Wavelength=706.5 nm, x2 = 0.804 | 1.34426 ± 0.00033
298.15 K, Wavelength=706.5 nm, x2 = 0.807 | 1.34415 ± 0.00033
298.15 K, Wavelength=706.5 nm, x2 = 0.8727 | 1.33906 ± 0.00032
298.15 K, Wavelength=706.5 nm, x2 = 0.9233 | 1.33225 ± 0.00033
298.15 K, Wavelength=706.5 nm, x2 = 0.9253 | 1.33407 ± 0.00033
298.15 K, Wavelength=706.5 nm, x2 = 0.9773 | 1.32755 ± 0.00032
298.15 K, Wavelength=706.5 nm, x2 = 0.989 | 1.32641 ± 0.00032
298.15 K, Wavelength=706.5 nm, x2 = 0.9964 | 1.32502 ± 0.00032
303.15 K, Wavelength=40.47 nm, x2 = 0 | 1.37321 ± 0.00044
303.15 K, Wavelength=40.47 nm, x2 = 0.0423 | 1.37316 ± 0.00043
303.15 K, Wavelength=40.47 nm, x2 = 0.0424 | 1.37317 ± 0.00043
303.15 K, Wavelength=40.47 nm, x2 = 0.082 | 1.3731 ± 0.00042
303.15 K, Wavelength=40.47 nm, x2 = 0.0822 | 1.37318 ± 0.00042
303.15 K, Wavelength=40.47 nm, x2 = 0.1171 | 1.37301 ± 0.00041
303.15 K, Wavelength=40.47 nm, x2 = 0.1271 | 1.37303 ± 0.00041
303.15 K, Wavelength=40.47 nm, x2 = 0.1827 | 1.37268 ± 0.0004
303.15 K, Wavelength=40.47 nm, x2 = 0.2162 | 1.37251 ± 0.0004
303.15 K, Wavelength=40.47 nm, x2 = 0.251 | 1.3735 ± 0.00039
303.15 K, Wavelength=40.47 nm, x2 = 0.3298 | 1.37186 ± 0.00038
303.15 K, Wavelength=40.47 nm, x2 = 0.3577 | 1.37205 ± 0.00037
303.15 K, Wavelength=40.47 nm, x2 = 0.4497 | 1.3695 ± 0.00037
303.15 K, Wavelength=40.47 nm, x2 = 0.4525 | 1.37001 ± 0.00037
303.15 K, Wavelength=40.47 nm, x2 = 0.522 | 1.3677 ± 0.00035
303.15 K, Wavelength=40.47 nm, x2 = 0.5543 | 1.36716 ± 0.00035
303.15 K, Wavelength=40.47 nm, x2 = 0.609 | 1.36428 ± 0.00034
303.15 K, Wavelength=40.47 nm, x2 = 0.6529 | 1.36277 ± 0.00034
303.15 K, Wavelength=40.47 nm, x2 = 0.7504 | 1.35877 ± 0.00033
303.15 K, Wavelength=40.47 nm, x2 = 0.804 | 1.35438 ± 0.00033
303.15 K, Wavelength=40.47 nm, x2 = 0.807 | 1.35432 ± 0.00033
303.15 K, Wavelength=40.47 nm, x2 = 0.8727 | 1.34909 ± 0.00032
303.15 K, Wavelength=40.47 nm, x2 = 0.9233 | 1.34198 ± 0.00033
303.15 K, Wavelength=40.47 nm, x2 = 0.9253 | 1.34381 ± 0.00033
303.15 K, Wavelength=40.47 nm, x2 = 0.9527 | 1.34063 ± 0.00032
303.15 K, Wavelength=40.47 nm, x2 = 0.9773 | 1.33704 ± 0.00032
303.15 K, Wavelength=40.47 nm, x2 = 0.989 | 1.33587 ± 0.00032
303.15 K, Wavelength=40.47 nm, x2 = 0.9964 | 1.33483 ± 0.00032
303.15 K, Wavelength=435.8 nm, x2 = 0 | 1.37022 ± 0.00044
303.15 K, Wavelength=435.8 nm, x2 = 0.0423 | 1.37019 ± 0.00044
303.15 K, Wavelength=435.8 nm, x2 = 0.0424 | 1.37022 ± 0.00043
303.15 K, Wavelength=435.8 nm, x2 = 0.082 | 1.37014 ± 0.00042
303.15 K, Wavelength=435.8 nm, x2 = 0.0822 | 1.37022 ± 0.00042
303.15 K, Wavelength=435.8 nm, x2 = 0.1171 | 1.37006 ± 0.00041
303.15 K, Wavelength=435.8 nm, x2 = 0.1271 | 1.37006 ± 0.00041
303.15 K, Wavelength=435.8 nm, x2 = 0.1827 | 1.36973 ± 0.0004
303.15 K, Wavelength=435.8 nm, x2 = 0.2162 | 1.36956 ± 0.0004
303.15 K, Wavelength=435.8 nm, x2 = 0.251 | 1.36955 ± 0.00039
303.15 K, Wavelength=435.8 nm, x2 = 0.3298 | 1.36893 ± 0.00038
303.15 K, Wavelength=435.8 nm, x2 = 0.3577 | 1.36912 ± 0.00037
303.15 K, Wavelength=435.8 nm, x2 = 0.4497 | 1.36661 ± 0.00037
303.15 K, Wavelength=435.8 nm, x2 = 0.4525 | 1.36711 ± 0.00037
303.15 K, Wavelength=435.8 nm, x2 = 0.522 | 1.36484 ± 0.00035
303.15 K, Wavelength=435.8 nm, x2 = 0.5543 | 1.36432 ± 0.00035
303.15 K, Wavelength=435.8 nm, x2 = 0.609 | 1.36149 ± 0.00034
303.15 K, Wavelength=435.8 nm, x2 = 0.6529 | 1.35999 ± 0.00034
303.15 K, Wavelength=435.8 nm, x2 = 0.7504 | 1.35604 ± 0.00033
303.15 K, Wavelength=435.8 nm, x2 = 0.804 | 1.35174 ± 0.00033
303.15 K, Wavelength=435.8 nm, x2 = 0.807 | 1.35168 ± 0.00033
303.15 K, Wavelength=435.8 nm, x2 = 0.8727 | 1.34651 ± 0.00032
303.15 K, Wavelength=435.8 nm, x2 = 0.9233 | 1.3395 ± 0.00033
303.15 K, Wavelength=435.8 nm, x2 = 0.9253 | 1.34132 ± 0.00033
303.15 K, Wavelength=435.8 nm, x2 = 0.9527 | 1.33817 ± 0.00032
303.15 K, Wavelength=435.8 nm, x2 = 0.9773 | 1.33466 ± 0.00032
303.15 K, Wavelength=435.8 nm, x2 = 0.989 | 1.33351 ± 0.00032
303.15 K, Wavelength=435.8 nm, x2 = 0.9964 | 1.33219 ± 0.00032
303.15 K, Wavelength=486.1 nm, x2 = 0 | 1.36687 ± 0.00043
303.15 K, Wavelength=486.1 nm, x2 = 0.0424 | 1.36682 ± 0.00043
303.15 K, Wavelength=486.1 nm, x2 = 0.082 | 1.36677 ± 0.00042
303.15 K, Wavelength=486.1 nm, x2 = 0.0822 | 1.36685 ± 0.00042
303.15 K, Wavelength=486.1 nm, x2 = 0.1171 | 1.36669 ± 0.00041
